Measurements reported in article PMC13052201, “Positional scanning and computational modeling reveal determinants of legumain transpeptidase activity” (Protein Science : A Publication of the Protein Society, 2026).
Where a SMILES comes first, the peptide text is derived from it. The star is where a group is joined. AMC = Cc1cc(=O)oc2cc(N*)ccc12; Cbz = O=C(OCc1ccccc1)*

How the values were obtained:
human legumain (hLEG) = target: T1, human legumain (hLEG) (Homo sapiens, UniProt Q99538); assay: Enzyme kinetic assay with fluorogenic AMC substrates, hLEG; type: biochemical; conditions: 2 nM hLEG; for Km: 50 mM citric acid pH 5.5, 100 mM NaCl, 0.05% Tween-20, 37°C, ex 380/em 460 nm, Michaelis-Menten (Z-AAN-AMC) or substrate inhibition model (Z-VAN-AMC)
T1 construct: inferred from the Ni-NTA purification of the proenzyme; made in house; host or cells: LEXSY P10 cells (Leishmania tarentolae expression system), secreted into the supernatant
T1 sequence (Q99538 18-323 limits assumed): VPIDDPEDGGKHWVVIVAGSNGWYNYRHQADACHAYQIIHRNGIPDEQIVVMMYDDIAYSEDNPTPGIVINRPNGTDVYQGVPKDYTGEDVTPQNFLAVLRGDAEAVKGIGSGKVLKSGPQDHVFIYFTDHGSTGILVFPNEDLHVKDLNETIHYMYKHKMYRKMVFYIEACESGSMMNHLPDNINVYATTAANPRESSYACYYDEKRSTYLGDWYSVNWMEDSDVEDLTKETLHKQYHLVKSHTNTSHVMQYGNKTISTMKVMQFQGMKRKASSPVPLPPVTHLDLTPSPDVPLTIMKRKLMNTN
Procedure: K m values for the substrates Z‐AAN‐AMC (benzyloxycarbonyl‐Ala‐Ala‐Asn‐7‐amino‐4‐methylcoumarin) and Z‐VAN‐AMC (benzyloxycarbonyl‐Val‐Ala‐Asn‐7‐amino‐4‐methylcoumarin) toward hLEG were determined in 50 mM citric acid buffer (pH 5.5) containing 100 mM NaCl and 0.05% Tween‐20. Reactions were carried out at 37°C with 2 nM hLEG. Substrate concentrations ranged from 100 to 0.787 μM for Z‐AAN‐AMC and from 75 to 0.28 μM for Z‐VAN‐AMC.
Reactions were initiated by addition of the enzyme, and fluorescence was monitored in a microplate reader (CLARIOstar Plus with Voyager v2405 software, BMG Labtech) at 380 nm excitation and 460 nm emission. All measurements were performed in triplicate (n = 3).
Data analysis was performed in GraphPad Prism (v9.3.1; GraphPad Software, La Jolla, CA) using the built‐in Michaelis–Menten model for Z‐AAN‐AMC and the substrate inhibition model for Z‐VAN‐AMC. Data points corresponding to 23.73 μM Z‐VAN‐AMC were excluded from analysis, as a linear fit of the initial slope was not possible. Standard errors of the curve fits are reported for all fitted parameters.

AtLEGβ = conditions: ref Dall et al., [2020]; cited from earlier work
Description: To probe non‐prime side specificity, we constructed a second peptide library using the format XXXN‐CL, fixing P1' as cysteine and P2' as leucine, based on the highest‐scoring sequences from the prime‐side screen. […] Thr and Val were especially well tolerated, a trend that persisted when P2 was fixed as Ala and P3/P4 were varied (Figure S7b). These predictions were validated experimentally by comparing AtLEGβ affinity for Z‐AAN‐AMC versus Z‐VAN‐AMC fluor ...

[1] = pH 5.5, 37°C, n = 3, ± standard error of fit (Figure 9)

Compound | Km (human legumain (hLEG); n = 3, ± standard error of fit) | Km (human legumain (hLEG); n = 3, ± standard error of fit, listed as Z-AAN-AMC) | Vmax (human legumain (hLEG); pH 5.5, 37°C, n = 3) | Vmax (human legumain (hLEG); [1]) | Km (AtLEGβ) | Km (human legumain (hLEG); n = 3, ± standard error of fit, listed as Z-VAN-AMC) | Vmax ratio Z-VAN-AMC vs Z-AAN-AMC (human legumain (hLEG); pH 5.5, 37°C) | Ki (human legumain (hLEG); pH 5.5, 37°C, substrate inhibition model, n = 3, ± standard error of fit)
benzyloxycarbonyl‐Ala‐Ala‐Asn‐7‐amino‐4‐methylcoumarin [Z‐AAN‐AMC] | 55 µM | 55.5 ± 2.4 µM | 400 RFU/s | 399.6 ± 8.6 RFU/sec | 337 ± 3 µM | – | – | –
Cc1cc(=O)oc2cc(NC(=O)[C@H](CC(N)=O)NC(=O)[C@H](C)NC(=O)[C@@H](NC(=O)OCc3ccccc3)C(C)C)ccc12 [Z‐VAN‐AMC, benzyloxycarbonyl‐Val‐Ala‐Asn‐7‐amino‐4‐methylcoumarin] (Cbz-Val-Ala-Asn-{AMC}) | ~20 µM | – | 7800 RFU/s | 7776 ± 1591 RFU/sec | 57 ± 3 µM | 19.6 ± 5.32 µM | ~ 20 fold | 16.2 ± 4.5 µM
